Assays:
HT29 cells [1] = experiment: qPCR with RealTime Ready Human Apoptosis Panel, 96 in paclitaxel-treated HT29 cells; type: cell-based
Method: (§1) Cells were harvested for RNA isolation after one, two, four and 24 hours. Cell number was determined and portions of 10^6 cells were used for RNA isolation applying the High Pure RNA Isolation Kit following the manufacturer's instruction.
(§2) From each RNA population 1 μg total RNA was used for cDNA synthesis with the Transcriptor First Strand cDNA Synthesis Kit.
(§3) The total yield of one cDNA synthesis reaction starting from 1 μg RNA was used as template for each RealTime ready Human Apoptosis Panel, 96 or RealTime ready Human Cell Cycle Panel, 96. Total PCR reaction volume per well was 20 μl with Light Cycler480 Probes Master. The easy-to-use macro for the panel containing PCR protocol, sample setup and analysis was applied on LIGHTCYCLER480 software 1.5.
(§4) Four time points, one, two, four and twenty four hours were selected for qPCR runs on the LIGHTCYCLER480 system using the RealTime Ready Human Apoptosis Panel, 96 (FIG. 5) and the RealTime Ready Human Cell Cycle Panel, 96 (FIG. 7). Gene names corresponding to the numbers that can be found in the package insert of both panels (Roche Applied Science).

HT29 cells [2] = experiment: Cell Index monitoring (XCELLIGENCE RTCA SP) of HT29 cells treated with paclitaxel; type: cell-based; settings: 50 nM paclitaxel
Method: HT29 cells were cultivated in parallel in McCoy's medium in either T75 cell culture bottles (for RNA isolation) or an E-Plate 96 (for cell growth monitoring) and in three regular microtiter plates (for WST-1 assay).
The surface of the bottom of a single well of the E-Plate 96 is given with approx. 0.2 cm^2. T75 cell culture bottles have 75 cm^2.
After 24 hours incubation at 37° C. paclitaxel was added to a final concentration of 50 nM. As the 2 mM paclitaxel stock was dissolved in DMSO, control cells were treated with DMSO to a final concentration of 0.0025%. In addition cells treated with medium only were monitored in parallel.
All cells were further incubated at 37° C. The growth of the cells was monitored real time on the RTCA SP Station over the whole course of the experiment (FIG. 3).
To ensure that untreated cells are within the early logarithmic growth phase at the time point of paclitaxel treatment, cells were treated with 50 nM paclitaxel at approx. ⅓ of their maximum Cell Index at 20 hours after seeding.

HT29 cells [3] = experiment: qPCR with RealTime Ready Human Cell Cycle Panel, 96 in paclitaxel-treated HT29 cells; type: cell-based; settings: 50 nM paclitaxel vs DMSO control; time points 1, 2, 4, 24 hours
Method: as §1, §2, §3, §4

MCF-7 cells [4] = experiment: Impedance-based real time cell analysis (XCELLIGENCE) of MCF-7 cells treated with Paclitaxel; design: species or system human; settings: 12.5 nM Paclitaxel
Description: In this example, we have investigated gene expression profiles of human MCF-7 breast cancer cells (human adenocarcinoma breast cancer cell line) obtained from ATCC (passage number: 15, cell number: 5000 cells per well), maintained in MEM (32360, Gibco)+10% FCS (30-3702, PAN)+Na-Pyruvat (PO4-43100, PAN)+Nonessential amino acids (P08-32100, PAN) at time points that are indicated by changes in cell characteristics as visualized by changes of impedance (cell indices) measurements upon drug addition. Accordingly, gene expression profiles were determined at 6 h, 24 h, 72 h and 147 h upon Paclitaxel administration. […] It includes genes involved in various biological functions such as cell cycle regulation and cell proliferation, apoptosis, signal transduction and transcriptional regulation, fatty acid and sterol metabolism and IFN-mediated signaling (Bani, M., R., et al., Molecular Cancer Therapeutics 3(2) (2004) 111-121). With respect to the two time points (6 h and 24 h upon drug administration) microarray studies had been performed by other groups and we were able to reproduce 70% of their results (Bani, M., R., et al., Molecular Cancer Therapeutics 3(2) (2004) 111-121). In addition, we determined mRNA levels at two additional time points (72 h and 147 h upon drug administration) during prolonged drug exposure of cells.
Procedure: Seeding, Growth. […]
5000 MCF-7 cells were seeded per well and 24 h later treated with a final concentration of 12.5 nM Paclitaxel (dissolved in DMSO). […] The Paclitaxel concentration we applied in this experiment represents twice the IC50-value of this drug for MCF-7 cells and had been determined in an dose-response experiment (Paclitaxel titration) with the XCELLIGENCE system and an appropriate tool of the XCELLIGENCE software SP1.0.0.0807 (data not shown).

MCF-7 cells [5] = experiment: Gene expression profiling by q-RT-PCR (LIGHTCYCLER 480) of Paclitaxel-treated MCF-7 cells; type: cell-based, human
Method: We have performed gene expression profiling experiments of MCF-7 cells treated with Paclitaxel for a period of approximately 150 h. Within this example the gene expression of 20 different genes (gene accession numbers in brackets) were monitored:
We intended to determine and reproduce gene expression changes with time upon drug treatment, the majority of which had been observed and described before by others in an independent in vivo-study based on DNA microarray technique using ovarian carcinoma xenografts ([…], M., R., et al., Molecular Cancer Therapeutics 3(2) (2004) 111-121; Boschke, C., B., et al., Uni Tubingen (2008)). The time points for our pharmacokinetic screens have been chosen depending on cellular changes in response to Paclitaxel-treatment which were monitored by impedance-based real time cell analysis using the XCELLIGENCE system. Independent from the quality and extent of these cellular changes we harvested non-treated controls and drug-treated cells at their appropriate time points (6, 24, 72 and 147 h), isolated the mRNA by means of the MAGNA PURE System, reverse transcribed the total mRNA into cDNA using a common Thermocycler, pooled and diluted the cDNA samples and amplified the predefined set of specific genes as well as house keeping genes in triplicates by q-RT-PCR making use of the LIGHTCYCLER 480 System. Necessary primer pairs were synthesized and tested for functionality in-house in combination with a bioinformatically determined UPL probe (data not shown). The LIGHTCYCLER software 1.5 allowed the relative quantification of the selected mRNA abundance under Paclitaxel-treated conditions with respect to the corresponding non-treated situation (reference). Results are corrected by the values determined for internal standard genes (stably expressed house keeping genes), like β-Actin, β-Globin and GAPDH. […]

Which “number of genes significantly (more than 4 times) up/down regulated” value (HT29 cells [1]; 50 nM paclitaxel vs DMSO control, all time points compared) does the source give for `CC(=O)O[C@H]1C(=O)[C@@]2(C)[C@H]([C@H](OC(=O)c3ccccc3)[C@]3(O)C[C@H](OC(=O)[C@H](O)[C@@H](NC(=O)c4ccccc4)c4ccccc4)C(C)=C1C3(C)C)[C@]1(OC(C)=O)CO[C@@H]1C[C@@H]2O` [Paclitaxel] here?
Its value is 6 genes.

And the “time of most significant alteration of expression level of apoptosis related genes” value (HT29 cells [1]; 50 nM paclitaxel vs DMSO control, time points 1, 2, 4, 24 hours)?
Its value is “within the first hour”.

And the “significant gene expression changes compared to DMSO control” value (HT29 cells [1]; two and four hours after paclitaxel treatment, 50 nM)?
The value was “no genes show significant expression changes”.

What about the “time after treatment to reach minimum Cell Index” value (HT29 cells [2]) of the same molecule?
The value was “approx. 24 hours”.

What about the “Cell Index (normalized)” value (HT29 cells [2]; 24 hours after treatment) of the same molecule?
Its value is “zero”.

And the “Cell Index change” value (HT29 cells [2]; within the first hour after treatment)?
Its value is “slightly increased”.

And the “time of most dramatic effects on cell cycle gene expression” value (HT29 cells [3])?
Its value is “within the first four hours”.

And the “time upon drug addition at which proliferation curve switches from descending to ascending course” value (MCF-7 cells [4])?
The value was “approximately 20 h”.

And the “course of proliferation curve (impedance / cell index) versus control” value (MCF-7 cells [4]; control 0.1% DMSO)?
Its value is “lower impedance or cell index values”.

And the “time upon drug treatment at which proliferation curve again begins to descend” value (MCF-7 cells [4]; descent continues up to ca. 150 h)?
The value was “around 70 h”.

And the “gene expression changes of investigated genes” value (MCF-7 cells [5]; 6 h upon drug addition, 12.5 nM Paclitaxel, vs non-treated)?
The value was “only small changes in expression”.

And the “gene expression changes of selected genes (e.g. CDKN1A, FOS, PIG8, TOP2A, MADH2)” value (MCF-7 cells [5]; 24 h after Paclitaxel treatment, 12.5 nM)?
Its value is “become more obvious”.

What about the “gene expression changes (ISG15, IFITM1, BNIP3, SLUG, ARF-1, CDC2, PLAB, IDI1)” value (MCF-7 cells [5]; later stages (72 and 147 h) of Paclitaxel treatment, 12.5 nM) of the same molecule?
Its value is “strongest gene expression changes”.

Source: patent publication US20100255469A1, “Cell monitoring and molecular analysis” (priority 2008, published 2010)
